Results: patent US6833374B2, “Dihydropyrazolo[3,4-d]thieno[2,3-B]pyridinone inhibitors of B7-1” (Wyeth, priority 2002, dated 2004)

Target: T1, B7-1/CD28 (Homo sapiens, UniProt P33681)
T1 sequence (P33681 35-242 limits assumed): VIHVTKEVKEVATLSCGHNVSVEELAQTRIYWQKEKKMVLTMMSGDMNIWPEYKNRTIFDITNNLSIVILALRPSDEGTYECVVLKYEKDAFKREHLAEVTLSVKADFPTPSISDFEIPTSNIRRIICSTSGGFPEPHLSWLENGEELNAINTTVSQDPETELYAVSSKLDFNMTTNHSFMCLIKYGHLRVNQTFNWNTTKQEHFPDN
Test: CD28/B7-1 ELISA (B7-1/CD28 binding inhibition)
Conditions: CD28-Fc coated wells, B7-1-Fc-biotin detection complex
Procedure: Evaluation of B7-1/CD28 Binding Inhibition for Test Compounds
Wells are coated with 300 ng CD28-Fc in carbonate buffer (pH 9.4) overnight at 4° C., blocked with 1% bovine serum albumin in tris-buffered saline (TBS) for 1 h at 22° C. and washed 3 times in TBS prior to assay. The detection complex is formed as follows: B7-1-Fc-biotin, prepared using NHS-LC-biotin (Pierce #21335) according to the manufacturers instructions (4.1 moles biotin/mole Fc), is added at 0.8 ug/ml to streptavidin-alkaline phosphatase (Caltag Sa1008 at 1:1000 in TBS. Gradient dilutions of test compound in dimethylsulfoxide (1% final) are added to this complex and incubated 30 min. at 22° C. Detection complex (+/− inhibitors) is then added to the CD28 coated wells for 25 min. at 22° C., washed 5 times with TBS, developed with the calorimetric substrate pNPP (Pierce #34045) in diethanolamine/MgCl2 buffer (pH 9.5) and read at 405 nm. The inhibition constant (IC50) is calculated by subtracting the background binding and comparing to uninhibited (DMSO alone) controls. The inhibition constant represents the concentration of test compound required to achieve 50% inhibition.

IC50 | SMILES
500 nM | O=c1c2c(-c3cccc(C(F)(F)F)c3)nc3sccc3c2[nH]n1-c1ccc(Cl)cc1 [Example 4, 2-(4-chlorophenyl)-4-[3-(trifluoromethyl)phenyl]-1,2-dihydro-3H-pyrazolo-[3,4-d]thieno[2,3-b]pyridin-3-one]
600 nM | O=c1c2c(-c3cccc(C(F)(F)F)c3)nc3sccc3c2[nH]n1-c1ccc(F)cc1 [Example 3, 2-(4-Fluorophenyl)-4-[3-(trifluoromethyl)phenyl]1,2-dihydro-3H-pyrazolo[3,4-d]thieno[2,3-b]pyridin-3-one]
